Test results reported in article PMC6572294, “Repurposing of FDA-Approved NSAIDs for DPP-4 Inhibition as an Alternative for Diabetes Mellitus Treatment: Computational and in Vitro Study” (Pharmaceutics, 2019).

Molecular target: T1, human dipeptidyl peptidase-4 (DPP-4) (Homo sapiens, UniProt P27487)
T1 construct: gene DPP4
Assay: fluorogenic Gly-Pro cleavage assay, human DPP-4 inhibitor screening kit (Sigma-Aldrich)
Type: biochemical

T1 sequence (P27487 39-766): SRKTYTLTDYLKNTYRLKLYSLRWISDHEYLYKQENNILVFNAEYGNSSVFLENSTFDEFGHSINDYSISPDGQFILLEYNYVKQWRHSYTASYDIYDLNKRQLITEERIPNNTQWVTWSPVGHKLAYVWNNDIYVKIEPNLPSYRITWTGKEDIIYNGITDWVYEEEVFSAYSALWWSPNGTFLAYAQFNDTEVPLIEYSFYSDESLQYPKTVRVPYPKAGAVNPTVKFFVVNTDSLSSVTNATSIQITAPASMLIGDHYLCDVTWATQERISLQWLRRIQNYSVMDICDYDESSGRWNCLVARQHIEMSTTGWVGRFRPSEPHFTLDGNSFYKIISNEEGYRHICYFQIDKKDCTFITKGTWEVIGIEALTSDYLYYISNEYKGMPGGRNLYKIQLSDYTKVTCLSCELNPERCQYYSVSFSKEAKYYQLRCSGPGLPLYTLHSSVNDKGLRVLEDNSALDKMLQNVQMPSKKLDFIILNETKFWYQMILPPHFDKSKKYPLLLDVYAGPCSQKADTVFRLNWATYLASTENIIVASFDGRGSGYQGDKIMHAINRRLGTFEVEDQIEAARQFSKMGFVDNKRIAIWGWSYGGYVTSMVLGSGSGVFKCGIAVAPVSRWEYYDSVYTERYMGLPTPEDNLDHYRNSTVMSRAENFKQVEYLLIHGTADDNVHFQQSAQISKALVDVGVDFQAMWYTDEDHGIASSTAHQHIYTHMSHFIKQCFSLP

SMILES: CN1C(C(=O)Nc2ccccn2)=C(O)c2ccccc2S1(=O)=O [piroxicam]
- IC50: 9.9 µM
